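Five concentrations, 48 hours, 96-well plates. The concentration for 50% growth inhibition is given as GI50. TGI marks complete inhibition of growth.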
How the values were obtained:
Assay in all cases: NCI tumour cell line growth inhibition, 48 h
ACHN renal = system: ACHN renal
HL-60(TB) leukemia = system: HL-60(TB) leukemia
IGROV1 ovarian = system: IGROV1 ovarian
MALME-3M melanoma = system: MALME-3M melanoma
NCI-H460 lung = system: NCI-H460 lung
SF-539 CNS = system: SF-539 CNS
SN12C renal = system: SN12C renal
SW-620 colon = system: SW-620 colon

Compound	TGI (ACHN renal) [µM]	TGI (HL-60(TB) leukemia) [µM]	TGI (IGROV1 ovarian) [µM]	TGI (MALME-3M melanoma) [µM]	TGI (NCI-H460 lung) [µM]	TGI (SF-539 CNS) [µM]	TGI (SN12C renal) [µM]	TGI (SW-620 colon) [µM]	GI50 (ACHN renal) [µM]	GI50 (HL-60(TB) leukemia) [µM]	GI50 (IGROV1 ovarian) [µM]	GI50 (MALME-3M melanoma) [µM]	GI50 (NCI-H460 lung) [µM]	GI50 (SF-539 CNS) [µM]	GI50 (SN12C renal) [µM]	GI50 (SW-620 colon) [µM]
COc1ccc(Oc2cnn(C(Br)(Br)C(C)=O)c(=O)c2Br)cc1	26.4	10.9	42.8	32.2	37.1	25.4	28.5	27.8								
CCOC(=O)C1=CC(C)(C(=O)OCC)Nc2c(nc(N)[nH]c2=O)N1 (configuration not stated)	> 10		> 10	> 10	> 10	> 10	> 10	> 10								
CC(C)C(N)C(=O)NC(CCC(=O)NCCCCC(N)C(=O)NCCCNc1ccc([N+](=O)[O-])c2[nH]c3ccccc3c(=O)c12)C(N)=O (configuration not stated)	> 100				> 100			> 100								
C[C@]12CC[C@@H]3c4ccc(O)cc4CC[C@H]3[C@@H]1C/C(=C\c1ccc(C#N)cc1)C2=O	> 100		> 100	> 100	> 100	> 100	> 100	> 100								
COc1ccc(-n2nc(C)c3c(Nc4ccc(NC(=O)Nc5ccc(Cl)c(C(F)(F)F)c5)cc4)ncnc32)cc1	6.86	4.95	7.23	3.35	5.07	3.2	9.37	4.35	1.64	2.1	2.23	1.54	2.17	1.24	2.63	1.9
O=C1c2cccc(O)c2C(=O)c2c(OC3OC(CO)C(O)C(O)C3O)cccc21 (configuration not stated)	> 100		> 100	20.9	59	58.1	> 100	> 100								
O=C(CC(C(=O)c1ccco1)c1ccco1)c1ccco1 (configuration not stated)	> 100	> 100	> 100		> 100	> 100	> 100	> 100								
O=S1(=O)c2cnccc2NC(=NCc2ccccc2)N1c1ccccc1	> 100	> 100	> 100	> 100	> 100	> 100	> 100	> 100								
CC(C)C1=C(O)C2=C(C(=O)C1=O)C1(C)CCCC(C)(C)C1C(O)C2OC=O (configuration not stated)	13.2	18.7	22.2	23.7	12.7	31.5	23.2	13.1								
CC(=O)Oc1c(C)c(C)c2c(c1C)CCC(C)(CC(=O)OCCCCCCCCCCC[P+](c1ccccc1)(c1ccccc1)c1ccccc1)O2 (configuration not stated)		0.926				1.47		1.33		0.228				0.411		0.315
O=C1/C(=C/c2cccc([N+](=O)[O-])c2)Sc2scc(-c3ccc([N+](=O)[O-])cc3)[n+]21	49.9		53.6		24.6	> 100	40.9	> 100								
COC1C(O)C(O[C@H]2CC[C@@]3(C)C(CC[C@@H]4[C@@H]3CC[C@]3(C)[C@@H](C(C)OC5OC(CO)C(O)C(O)C5O)CC[C@]43O)C2)OC(C)C1OC1OC(CO)C(O)C(O)C1O (some centres not stated)	> 100		> 100	> 100	> 100	> 100	> 100	> 100								
CN(C)CCCNC(=O)c1c(O)c2ccccc2n(C)c1=O	> 100	> 100	> 100	> 100	> 100	> 100	> 100	> 100								
O=S1SC(=S)C2C=CC=CC21 (configuration not stated)	> 100	> 100	> 100	> 100	> 100	> 100	> 100	> 100								
Nc1ccc(-c2nn3c(COc4ccc(Cl)cc4)nnc3s2)cc1	> 100	> 100	> 100	> 100	> 100	> 100	> 100	> 100						34.5		
CCOC(=O)c1c(SCCN2CCOCC2)n(-c2ccccc2)c(=S)n(-c2ccccc2)c1=O	> 100	49.2	> 100	> 100	> 100		> 100	41.6								
CC1(C)CC(C#Cc2ccccc2)CC(C)(C)N1O	> 100	64.4	> 100	32.9	44.8	51.8	28.8	50.5								
O=C1CS(=O)(=O)C(c2cccc(Oc3ccccc3)c2)N1c1cc(Cl)ccc1Cl (configuration not stated)	43.1	81.8		> 100	53.5	44.6	39	> 100								
CC(=O)n1nc(-c2ccccc2)n(/N=C/c2ccc([N+](=O)[O-])o2)c1=O	19.1	9.73	37.4	16.5	15.9	18.4	7.39	22.9								
O=[N+]([O-])/C(Cl)=C(\NCCN/C(C(Cl)=C(Cl)Cl)=C(/Cl)[N+](=O)[O-])C(Cl)=C(Cl)Cl	> 100	87.5	> 100	> 100	> 100	> 100	> 100	> 100								
CC1(C)N=C2C(=O)c3c([nH]c4ccccc34)[C@]3(C)CCC1CC23 (some centres not stated)	> 6.25	> 6.25	> 6.25	> 6.25	> 6.25	> 6.25	> 6.25	> 6.25								
C/C(=C\CO)CC/C=C(\C)CNc1ccc([N+](=O)[O-])cc1	> 100	57.2	> 100	34.6	> 100	> 100	> 100	> 100								
CCN(CCCl)c1cc(CN(C)C)cc(NC(=O)c2ccc(C(=O)Nc3cccc(CN(C)C)c3)cc2)c1	10.7	0.444	10	2.81	10.6	2.99	10.6	0.75								
